# Experiments:
# [1] = test system: C6 glioma cells overexpressing connexin43; assay: In vitro cell swelling and dye uptake model (simulated ischemia); type: cell-based
# Method: In this experiment, the effect of Compound 2 on calcein dye-uptake induced by metabolic inhibition in cultured C6 glioma cells overexpressing connexin43 was studied. Cells were incubated under control conditions and during simulated ischemia (SI) for 40 minutes in the presence of calcein (200 μM). Following incubation the cells were subjected to epifluorescence microscopy to determine the uptake of calcein. Incubation of C6 cells in SI medium increased dye-uptake to 5-fold above control values.
# [2] = test system: dogs subjected to a 60-min coronary artery occlusion and 4 hr reperfusion; assay: Canine infarct size and reperfusion arrhythmia model; type: in vivo; conditions: dog, two highest doses; for Total incidence of VT: IV 10-min before reperfusion, controls 23.0±6.1; for Total PVC's: during reperfusion, control 11.1±1.6%; for Infarct size, expressed as percent of left ventricle: controls 19.0±3.5
# Method: Compound 2 was tested in dogs subjected to a 60-min coronary artery occlusion and 4 hr reperfusion, as described by Hennan et al. ([…]., 317, 236-43 (2006)). Compound 2 was administered IV 10-min before reperfusion as a bolus+IV infusion at doses of: 0.25 μg/kg bolus+0.19 μg/kg/hr infusion (n=6); 2.5 μg/kg bolus+1.9 μg/kg/hr infusion (n=7); 25 μg/kg bolus+19 μg/kg/hr infusion (n=6); 75 μg/kg bolus+57 μg/kg/hr infusion (n=5); vehicle control (n=7). Premature ventricular complexes (PVC's) were quantified during reperfusion. Four or more consecutive PVC's was defined as ventricular tachycardia (VT).
# [3] = test system: isolated rat atrial strip; assay: Isolated atrial strip model of metabolic stress induced atrial conduction slowing; conditions: rat left atrial strip; 40 min glucose-free, non-oxygenated buffer; control decreased by 22%
# Method: Peptides suitable for administration to cardiac cells can be identified in an in vitro model as described by Haugan et al. (J. Cardiovasc. Electrophysiol., 16, 537-545 (2005)).
# Rats (300-400 g) are killed by a sharp blow on the neck. The heart is rapidly excised and transferred to a small dish containing 37° oxygenated modified Tyrodes buffer containing (in mM): NaCl 136, KCl 4, MgCl2 0.8, CaCl2 1.8 HEPES 5, MES 5, Glucose 6, pH 7.3. The left atrium is carefully dissected and a tissue sample of approximately 2×6 mm is taken from the left atrial appendage and placed in a tissue chamber (volume 5 ml), (Steiert Organ Bath, Hugo Sach Electronic, Germany). The chamber is perfused throughout the study with 37° C. oxygenated Tyrodes buffer at a rate of 10 ml/min.
# A bipolar stimulation electrode (Teflon coated stainless steel, diameter […]) is placed at one end of the tissue. Stimulation is performed at 1 Hz using rectangular pulses at double threshold (duration of stimulus 0.2 ms) delivered by a stimulator (Hugo Sachs, Type 215) through an isolation unit (Universal Isolated Stimulator Unit type 263, Hugo Sachs, Germany).
# Two separate microelectrodes of pure iridium (World Precision Instruments, tip-impedance 3.5-4.0 MΩ) are placed on a line along the long-axis of the preparation for recording of atrial CV. […]
# [4] = first value (25 μg/kg bolus+19 μg/kg/hr infusion)
# [5] = second value (75 μg/kg bolus+57 μg/kg/hr infusion)
smiles,measurement,setting,value
"NCC(=O)N1C[C@H](NC(=O)c2ccccc2)C[C@H]1C(=O)O [Compound 2, (2S4R)1-(2-Amino-acetyl)-4-benzoylamino-pyrrolidine-2-carboxylic acid]",relative reduction of the SI inducible calcein dye-uptake response,"[1]; 100 μM compound, simulated ischemia 40 minutes, calcein 200 μM, p<0.05 vs. vehicle",32%
same,calcein dye-uptake during simulated ischemia,"[1]; C6 glioma cells overexpressing connexin43, simulated ischemia 40 minutes",dose-dependently inhibited
same,cell swelling during the 40 min stress period,"[1]; C6 glioma cells, control cells exhibited cell swelling",did not
same,half-life in male rat liver microsomes,,greater than 30 minutes
same,Total incidence of VT,[2]; [4],1.7±0.8 events
same,Total incidence of VT,[2]; [5],2.2±1.4 events
same,Total PVC's,[2]; [4],2.0±0.7%
same,Total PVC's,[2]; [5],1.8±0.8%
same,"Infarct size, expressed as percent of left ventricle",[2]; [4],7.9±1.5%
same,"Infarct size, expressed as percent of left ventricle",[2]; [5],7.1±0.8%
same,atrial conduction velocity change compared to baseline,[3],did not change compared to baseline

# Source: US8431540B2, “Modified lysine-mimetic compounds” (Zealand Pharma A/S, priority 2005, dated 2013)
